Laboratory results as given in US8470852B2, “Substituted 2-amino-quinoline-3-carboxamides as KCNQ2/3 modulators” (Gruenenthal GmbH, priority 2010, dated 2013).
pEC50: −log10 of the molar value.

Assays:
[1] = tested on: formalin-induced nociceptive behaviour, second (late) phase; assay: Formalin test carried out on mice; format: in vivo
Protocol: Method III. Formalin Test Carried Out on Mice In the formalin test, the testing to determine the antinociceptive effect of the compounds according to the invention is carried out on male mice (NMRI, 20 to 30 g body weight, Iffa, Credo, Belgium). In the formalin test as described by D. Dubuisson et al., Pain 1977, 4, 161-174, a distinction is drawn between the first (early) phase (up to 10 minutes after the injection of formalin) and the second (late) phase (up to 60 minutes after the injection of formalin). The early phase, as an immediate reaction to the injection of formalin, is a model of acute pain, whereas the late phase is regarded as a model of persistent (chronic) pain (T. J. Coderre et al., Pain 1993, 52, 259-285). […] Subsequently, the nociceptive behaviour is continuously detected by observing the animals over a test period of three minutes in the second (late) phase of the formalin test (21 to 24 minutes after the injection of formalin). The pain behaviour is quantified by adding up the seconds over which the animals display licking and biting of the paw in question during the test period. […] Based on the quantification of the pain behaviour, the effect of the substance is determined in the formalin test as a percentage change relative to the corresponding control. […]

[2] = tested on: acute noxious thermal stimulus (tail withdrawal reflex); assay: Low-intensity tail flick test (rat); format: in vivo; details: dose 21.5 mg/kg
Protocol: Method II. Low-Intensity Tail Flick Test (Rat) In the low-intensity tail flick test, the determination of the antinociceptive effect of the compounds according to the invention towards an acute noxious thermal stimulus is carried out by measuring the withdrawal reflex of the rat tail (tail flick) in response to a radiant heat beam (analgesia meter; model 2011 of the company Rhema Labortechnik, Hofheim, Germany) according to the method described by D'Amour and Smith (J. Pharm. Exp. Ther. 72, 74 79 (1941). To this end, the rats were placed in a plexiglas restrainer, and a low-intensity radiant heat beam (48° C.) was focused onto the dorsal surface of the tail root. […] Before administration of a compound according to the invention, the animals were pre-tested twice in the course of five minutes and the mean of these measurements was calculated as the pre-test mean. The antinociceptive effect was determined at 20, 40 and 60 min after peroral compound administration. The antinociceptive effect was calculated based on the increase in the tail withdrawal latency according to the following formula and is expressed as percentage of the maximum possible effect (MPE [%]): MPE=[(T1−T0)/(T2−T0)]*100 In this, T0 is the control latency time before and T1 the latency time after administration of the compound, T2 is the cutoff time and MPE is the maximum possible effect. […]

KCNQ2/3 channels = target: T1, KCNQ2/3 channels (Homo sapiens, UniProt O43525+O43526); assay: Fluorescence assay using a voltage sensitive dye (fluorimetry); format: cell-based; details: CHO-K1 cells expressing KCNQ2/3 channels; for Emax: relative to retigabine = 100%, read-out: Fluorimetry % efficacy (retigabine = 100%)
T1 construct: expressed in transfected cells; host or cells: CHO-K1 cells, kept under selection antibiotics
Protocol: Pharmacological Experiments Method I. Fluorescence Assay Using a Voltage Sensitive Dye (Fluorimetry)
[…] CHO-K1 cells expressing KCNQ2/3 channels are cultivated adherently at 37° C., 5% CO2 and 95% humidity in cell culture bottles (e.g. 80 cm^2 TC flasks, Nunc) with DMEM-high glucose (Sigma Aldrich, D7777) including 10% FCS (PAN Biotech, e.g. 3302-P270521) or alternatively MEM Alpha Medium (1×, liquid, Invitrogen, #22571), 10% fetal calf serum (FCS) (Invitrogen, #10270-106, heat-inactivated) and the necessary selection antibiotics.
Before being sown out for the measurements, the cells are washed with 1×DPBS buffer Ca^2+/Mg^2+-free (e.g. Invitrogen, #14190-094) and detached from the bottom of the culture vessel by using Accutase (PAA Laboratories, #L11-007) (incubation with Accutase for 15 min at 37° C.). The cell number is determined using a CASY™ cell counter (TCC, Schärfe System). Depending on the optimal density for each individual cell line, 20,000-30,000 cells/well/100 μl are seeded onto 96-well Corning™ CellBIND™ assay plates (Flat Clear Bottom Black Polystyrene Microplates, #3340). Freshly seeded cells are then left to settle for one hour at room temperature, followed by incubation for 24 hours at 37° C., 5% CO2 and 95% humidity.
The voltage-sensitive fluorescent dye from the Membrane Potential Assay Kit (Red™ Bulk format part R8123 for FLIPR, MDS Analytical Technologies™) is prepared by dissolving the contents of one vessel Membrane Potential Assay Kit Red Component A in 200 ml of extracellular buffer (ES buffer, 120 mM NaCl, 1 mM KCl, 10 mM HEPES, 2 mM CaCl2, 2 mM MgCl2, 10 mM glucose; pH 7.4). After removal of the nutrient medium, the cells are washed once with 200 μl of ES buffer, then loaded for 45 min at room temperature in 100 μl of dye solution in the dark.
Fluorescence measurements are carried out in a BMG Labtech FLUOstar™, BMG Labtech NOVOstar™ or BMG Labtech POLARstar™ instrument (525 nm excitation, 560 nm emission, Bottom Read mode). After incubation with the dye, 50 μl of the test substances in the desired concentrations, or 50 μl of ES buffer for control purposes, are applied to the wells of the assay plate and incubated for 30 min at room temperature while being shielded from light. The fluorescence intensity of the dye is then measured for 5 min and the fluorescence value F1 of each well is thus determined at a given, constant time. 15 μl of a KCl solution are then added to each well (final concentration of potassium ions 92 mM). The change in fluorescence intensity is subsequently monitored until all the relevant values have been obtained (mainly 5-30 min). At a given time post KCl application, a fluorescence value F2 is determined, in this case at the time of the fluorescence peak.
For calculation, the fluorescence intensity F2 is corrected for the fluorescence intensity F1, and the activity (ΔF/F) of the target compound on the potassium channel is determined as follows:
In order to determine whether a substance has agonistic activity,
[formula] can be related to
[formula] of control wells.
[formula] is determined by adding to the well only the buffer solution instead of the test substance, determining the value F1K of the fluorescence intensity, adding the potassium ions as described above, and measuring a value F2K of the fluorescence intensity. F2K and F1K are then calculated as follows: […]
A substance has an agonistic activity on the potassium channel if
[formula] is greater than
Independently of the comparison of
[formula] it is possible to conclude that a target compound has agonistic activity if
[formula] increases dose dependently.
Calculations of EC50 and IC50 values are carried out with the aid of ‘Prism v4.0’ software (GraphPad Software™).

SMILES | pEC50 (KCNQ2/3 channels) | Emax (KCNQ2/3 channels) [%] | Formalin test, mice, intravenous, MPE (dose) ([1]; dose 4.64 mg/kg) | Low intensity tail flick, rat, peroral, MPE (dose) [2] | Formalin test, mice, intravenous, MPE (dose) ([1]; dose 10.0 mg/kg)
Cc1c(C(=O)NCc2cccc(F)c2)c(N2CCCC2)nc2cc(C(F)(F)F)ccc12 [Example 2, N-[(3-fluorophenyl)-methyl]-4-methyl-2-pyrrolidin-1-yl-7-(trifluoromethyl)-quinoline-3-carboxylic acid amide] | 6.10 | 186 | – | – | –
Cc1c(C(=O)NCc2cccc(F)c2)c(N(C)C)nc2cc(C(F)(F)F)ccc12 [Example 4, 2-dimethylamino-N-[(3-fluorophenyl)-methyl]-4-methyl-7-(trifluoromethyl)-quinoline-3-carboxylic acid amide] | 6.29 | 140 | – | – | –
Cc1c(C(=O)NCc2ccc(F)cc2)c(N2CCCC2)nc2cc(C(F)(F)F)ccc12 [Example 6, N-[(4-fluorophenyl)-methyl]-4-methyl-2-pyrrolidin-1-yl-7-(trifluoromethyl)-quinoline-3-carboxylic acid amide] | 6.23 | 204 | – | – | –
CCN(CC)c1nc2cc(C(F)(F)F)ccc2c(C)c1C(=O)NCc1cccc(F)c1 [Example 7, 2-diethylamino-N-[(3-fluorophenyl)-methyl]-4-methyl-7-(trifluoromethyl)-quinoline-3-carboxylic acid amide] | 6.33 | 199 | – | – | 65% (10.0)
Cc1c(C(=O)NCc2cccc(F)c2)c(N2CCOCC2)nc2cc(C(F)(F)F)ccc12 [Example 10, N-[(3-Fluorophenyl)-methyl]-4-methyl-2-morpholin-4-yl-7-(trifluoromethyl)-quinoline-3-carboxylic acid amide] | 5.97 | 181 | – | – | –

More lines, main results first:

pEC50 (KCNQ2/3 channels) | Emax (KCNQ2/3 channels) [%] | SMILES | Formalin test, mice, intravenous, MPE (dose) ([1]; dose 4.64 mg/kg) | Low intensity tail flick, rat, peroral, MPE (dose) [2] | Formalin test, mice, intravenous, MPE (dose) ([1]; dose 10.0 mg/kg)
6.60 | 141 | CCNc1nc2cc(C(F)(F)F)ccc2c(C)c1C(=O)NCc1cccc(F)c1 [Example 1, 2-ethylamino-N-[(3-fluorophenyl)-methyl]-4-methyl-7-(trifluoromethyl)-quinoline-3-carboxylic acid amide] | 71% (4.64) | 44% (21.5) | –
6.46 | 105 | Cc1c(C(=O)NCc2ccc(F)cc2)c(N(C)C)nc2cc(C(F)(F)F)ccc12 [Example 3, 2-dimethylamino-N-[(4-fluorophenyl)-methyl]-4-methyl-7-(trifluoromethyl)-quinoline-3-carboxylic acid amide] | – | – | –
6.14 | 205 | CCN(CC)c1nc2cc(C(F)(F)F)ccc2c(C)c1C(=O)NCc1ccc(F)cc1 [Example 5, 2-diethylamino-N-[(4-fluorophenyl)-methyl]-4-methyl-7-(trifluoromethyl)-quinoline-3-carboxylic acid amide] | – | – | –
6.51 | 157 | CCNc1nc2cc(C(F)(F)F)ccc2c(C)c1C(=O)NCc1ccc(F)cc1 [Example 8, 2-ethylamino-N-[(4-fluorophenyl)-methyl]-4-methyl-7-(trifluoromethyl)-quinoline-3-carboxylic acid amide] | – | – | –
6.39 | 111 | CNc1nc2cc(C(F)(F)F)ccc2c(C)c1C(=O)NCc1cccc(F)c1 [Example 9, N-[(3-fluorophenyl)-methyl]-4-methyl-2-methylamino-7-(trifluoromethyl)-quinoline-3-carboxylic acid amide] | – | – | –
